Experimental data as given in ChEMBL document CHEMBL5634079, “Development of novel celastrol-ligustrazine hybrids as potent peroxiredoxin 1 inhibitors against lung cancer” (Eur J Med Chem, 2023).
Active and inactive are the calls of the source. No cut-off for these calls is given here.

What was measured:
A549 [1] = experiment: Induction of apoptosis in human A549 cells assessed as decrease in PCNA level at 2 to 4 uM by Western blot analysis; assay type: functional, cell-based; conditions: dose 2-4 µM
A549 [2] = experiment: Inhibition of AKT phosphorylation in human A549 cells at 2 to 4 uM by Western blot analysis; assay type: cell-based; conditions: dose 2-4 µM
A549 [3] = experiment: Downregulation of PRDX1 gene expression in human A549 cells at 2 to 4 uM by Q-PCR analysis; assay type: functional, cell-based; conditions: dose 2-4 µM
A549 [4] = experiment: Downregulation of PRDX1 level in human A549 cells at 2 to 4 uM by Western blot analysis; assay type: functional, cell-based; conditions: dose 2-4 µM
A549 [5] = experiment: Induction of intracellular ROS generation in human A549 cells at 2 to 4 uM incubated for 6 hrs by DCFH-DA staining based flow cytometry analysis; assay type: functional, cell-based; conditions: dose 2-4 µM
A549 [6] = experiment: Induction of apoptosis in human A549 cells assessed as necrotic cells at 2 uM incubated for 48 hrs by Annexin V-FITC and PI staining based flow cytometric analysis (reference value: 4.68%); assay type: functional
A549 [7] = experiment: Induction of apoptosis in human A549 cells assessed as early apoptotic cells at 4 uM incubated for 48 hrs by Annexin V-FITC and PI staining based flow cytometric analysis (reference value: 0.76%); assay type: functional
A549 [8] = experiment: Downregulation of PRDX6 level in human A549 cells at 2 to 4 uM by Western blot analysis; assay type: functional, cell-based; conditions: dose 2-4 µM
A549 [9] = experiment: Induction of apoptosis in human A549 cells assessed as necrotic cells at 4 uM incubated for 48 hrs by Annexin V-FITC and PI staining based flow cytometric analysis (reference value: 4.68%); assay type: functional
Peroxiredoxin-1 = biological target: T1, Peroxiredoxin-1 (Homo sapiens, UniProt Q06830); experiment: Inhibition of PRDX1 (unknown origin) in presence of cofactor A/cofactor B/NADPH incubated for 25 mins; conditions: read-out: IC50
T1 sequence (Q06830 whole entry): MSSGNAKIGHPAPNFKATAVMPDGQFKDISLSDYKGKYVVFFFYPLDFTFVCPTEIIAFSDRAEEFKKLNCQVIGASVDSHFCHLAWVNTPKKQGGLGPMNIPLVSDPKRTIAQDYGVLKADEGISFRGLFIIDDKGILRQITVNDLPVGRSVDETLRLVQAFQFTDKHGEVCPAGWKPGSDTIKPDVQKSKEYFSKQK

[10] = Antitumor activity against mouse Lewis lung carcinoma cell line implanted in C57BL/6J mouse assessed as tumor growth inhibition at 1 mg/kg, ip administered every day for 19 days; assay type: functional; conditions: 456 h, time 19 day, read-out: TGI
A549 [11] = experiment: Induction of apoptosis in human A549 cells assessed as increase in cleaved caspase-3 expression at 2 to 4 uM by Western blot analysis; assay type: functional, cell-based; conditions: dose 2-4 µM
A549 [12] = experiment: Induction of apoptosis in human A549 cells assessed as early apoptotic cells at 2 uM incubated for 48 hrs by Annexin V-FITC and PI staining based flow cytometric analysis (reference value: 0.76%); assay type: functional
[13] = biological target: RAF proto-oncogene serine/threonine-protein kinase (Homo sapiens) (UniProt P04049); experiment: Inhibition of C-RAF phosphorylation in human A549 cells at 2 to 4 uM by Western blot analysis; assay type: cell-based; conditions: dose 2-4 µM
Chain of RAF proto-oncogene serine/threonine-protein kinase (Homo sapiens) (P04049 whole entry): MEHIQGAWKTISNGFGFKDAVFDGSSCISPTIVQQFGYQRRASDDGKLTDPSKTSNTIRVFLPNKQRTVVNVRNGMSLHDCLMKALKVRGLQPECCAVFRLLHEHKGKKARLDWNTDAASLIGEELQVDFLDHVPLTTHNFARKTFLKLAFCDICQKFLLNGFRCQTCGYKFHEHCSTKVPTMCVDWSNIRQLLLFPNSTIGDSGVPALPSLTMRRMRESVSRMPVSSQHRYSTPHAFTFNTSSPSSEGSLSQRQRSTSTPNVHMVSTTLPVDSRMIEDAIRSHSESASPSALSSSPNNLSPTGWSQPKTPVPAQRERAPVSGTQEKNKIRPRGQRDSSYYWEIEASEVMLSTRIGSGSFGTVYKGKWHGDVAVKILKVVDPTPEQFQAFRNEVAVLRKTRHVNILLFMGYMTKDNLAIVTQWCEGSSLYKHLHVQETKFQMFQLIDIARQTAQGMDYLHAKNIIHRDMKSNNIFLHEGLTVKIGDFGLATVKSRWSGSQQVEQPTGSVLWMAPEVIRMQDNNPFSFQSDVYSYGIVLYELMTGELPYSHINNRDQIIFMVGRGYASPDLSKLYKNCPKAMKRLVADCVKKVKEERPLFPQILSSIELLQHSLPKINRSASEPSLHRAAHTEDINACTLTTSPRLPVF

[14] = Antiproliferative activity against human LTEP-a2 cells assessed as inhibition of cell growth incubated for 48 hrs by MTT assay; assay type: functional, cell-based; conditions: LTEP-A2, 48 h
NCI-H1975 = experiment: Antiproliferative activity against human NCI-H1975 cells assessed as inhibition of cell growth incubated for 48 hrs by MTT assay; assay type: functional, cell-based; conditions: NCI-H1975, 48 h
A549 [15] = experiment: Induction of apoptosis in human A549 cells assessed as late apoptotic cells at 2 uM incubated for 48 hrs by Annexin V-FITC and PI staining based flow cytometric analysis (reference value: 0.73%); assay type: functional
A549 [16] = experiment: Inhibition of ERK phosphorylation in human A549 cells at 2 to 4 uM by Western blot analysis; assay type: cell-based; conditions: dose 2-4 µM
Lewis lung carcinoma [17] = experiment: Antitumor activity against mouse Lewis lung carcinoma cell line implanted in C57BL/6J mouse assessed as tumor cell agglutination at 0.5 to 1 mg/kg, ip administered every day for 19 days by H and E staining based analysis; assay type: functional, organism-based; conditions: dose 0.5-1 mg/kg, time 19.0 day
A549 [18] = experiment: Downregulation of PRDX4 level in human A549 cells at 2 to 4 uM by Western blot analysis; assay type: functional, cell-based; conditions: dose 2-4 µM
A549 [19] = experiment: Induction of intracellular ROS generation in human A549 cells at 2 to 4 uM by DCFH-DA staining based flow cytometry analysis; assay type: functional, cell-based; conditions: dose 2-4 µM, time 6.0 hrs, TDE = time-dependent effect
A549 [20] = experiment: Induction of apoptosis in human A549 cells assessed as increase in cleaved PARP expression at 2 to 4 uM by Western blot analysis; assay type: functional, cell-based; conditions: dose 2-4 µM
A549 [21] = experiment: Antiproliferative activity against human A549 cells assessed as inhibition of cell growth incubated for 48 hrs by MTT assay; assay type: functional, cell-based; conditions: A549, 48 h
[22] = Toxicity in C57BL/6J mouse implanted with mouse Lewis lung carcinoma cell line assessed as kidney damage at 0.5 to 1 mg/kg, ip administered every day for 19 days; assay type: organism-based; conditions: in vivo, 456 h, dose 0.5-1 mg/kg, time 19 day
A549 [23] = experiment: Downregulation of PRDX3 level in human A549 cells at 2 to 4 uM by Western blot analysis; assay type: functional, cell-based; conditions: dose 2-4 µM
A549 [24] = experiment: Inhibition of cell invasion in human A549 cells incubated for 12 to 48 hrs by crystal violet staining based microscopic analysis; assay type: functional; conditions: dose 2-4 µM, time 12-48 hrs
MDA-MB-231 = experiment: Antiproliferative activity against human MDA-MB-231 cells assessed as inhibition of cell growth incubated for 48 hrs by MTT assay; assay type: functional, cell-based; conditions: MDA-MB-231, 48 h
Lewis lung carcinoma [25] = experiment: Antitumor activity against mouse Lewis lung carcinoma cell line implanted in C57BL/6J mouse assessed as reduction in tumor cell proliferation by measuring reduction in Ki67 expression at 0.5 to 1 mg/kg, ip administered every day for 19 days; assay type: functional, organism-based; conditions: dose 0.5-1 mg/kg, time 19.0 day
A549 [26] = experiment: Downregulation of PRDX2 level in human A549 cells at 2 to 4 uM by Western blot analysis; assay type: functional, cell-based; conditions: dose 2-4 µM
[27] = Toxicity in C57BL/6J mouse implanted with mouse Lewis lung carcinoma cell line assessed as liver damage at 0.5 to 1 mg/kg, ip administered every day for 19 days; assay type: organism-based; conditions: in vivo, 456 h, dose 0.5-1 mg/kg, time 19 day
A549 [28] = experiment: Induction of apoptosis in human A549 cells assessed as viable cells at 2 uM incubated for 48 hrs by Annexin V-FITC and PI staining based flow cytometric analysis (reference value: 93.8%); assay type: functional; conditions: read-out: Activity
SK-HEP1 = experiment: Antiproliferative activity against human SK-HEP1 cells assessed as inhibition of cell growth incubated for 48 hrs by MTT assay; assay type: functional, cell-based; conditions: SK-HEP1, 48 h
A549 [29] = experiment: Inhibition of cell migration in human A549 cells at 2 to 4 uM incubated for 24 hrs by inverted microscopic analysis; assay type: functional, cell-based; conditions: dose 2-4 µM
A549 [30] = experiment: Inhibition of cell invasion in human A549 cells at 2 to 4 uM by crystal violet staining based microscopic analysis; assay type: functional; conditions: dose 2-4 µM, time 12-48 hrs, TDE = time-dependent effect
A549 [31] = experiment: Induction of cell cycle arrest in human A549 cells assessed as decrease in CDK4 level at 2 to 4 uM by Western blot analysis; assay type: functional, cell-based; conditions: dose 2-4 µM
A549 [32] = experiment: Downregulation of PRDX5 level in human A549 cells at 2 to 4 uM by Western blot analysis; assay type: functional, cell-based; conditions: dose 2-4 µM

With `CC1=C(OC(=O)/C=C/c2ccccc2)C(=O)C=C2C1=CC=C1[C@@]2(C)CC[C@@]2(C)[C@@H]3C[C@](C)(C(=O)NCc4nc(C)c(C)nc4C)CC[C@]3(C)CC[C@]12C` the Activity (A549 [1]) was “Active”, the inhibition (A549 [2]) was “Active” and the Activity (A549 [3]) was “Active”. The Activity (A549 [4]) was “Active”, the Activity (A549 [5]) was “Active” and the Activity (A549 [6]) was 3.57%. For the same compound, the Activity (A549 [7]) was 18.5%, the Activity (A549 [8]) was “Active” and the Activity (A549 [9]) was 3.04%. For the same compound, the IC50 (Peroxiredoxin-1) was 164 nM, the inhibition in vivo at 1 mg/kg [10] was 77.4% and the Activity (A549 [11]) was “Active”. For the same compound, the Activity (A549 [12]) was 3.13%, the inhibition [13] was “Active” and the IC50 [14] was 2930 nM. For the same compound, the IC50 (NCI-H1975) was 1990 nM, the Activity (A549 [15]) was 4.91% and the inhibition (A549 [16]) was “Active”. The Activity (Lewis lung carcinoma [17]) was “Active”, the Activity (A549 [18]) was “Active” and the Activity (A549 [19]) was “Tde”. For the same compound, the Activity (A549 [20]) was “Active”, the IC50 (A549 [21]) was 1920 nM and the Activity [22] was “Non-Toxic”. The Activity (A549 [23]) was “Active”, the inhibition (A549 [24]) was “Dose-Dependent Effect” and the IC50 (MDA-MB-231) was 2670 nM. For the same compound, the Activity (Lewis lung carcinoma [25]) was “Active”, the Activity (A549 [26]) was “Active” and the Activity [27] was “Non-Toxic”. The viability at 2 µM (A549 [28]) was 88.4%, the IC50 (SK-HEP1) was 2420 nM and the inhibition (A549 [29]) was “Active”. The inhibition (A549 [30]) was “Tde”, the Activity (A549 [31]) was “Active” and the Activity (A549 [32]) was “Active”.
